In assay [1] the test system is Rattus norvegicus. Briefly: Antiinflammatory activity in rat assessed as inhibition of carrageenan-induced edema at 100 mg/kg. The format is functional. A general note: The carrageenan paw model is a standard test of acute inflammation.
Assay [2] relates to Rattus norvegicus. Briefly: Analgesic activity in rat assessed as inhibition of writhing at 100 mg/kg. It counts as functional. For orientation: An intraperitoneal irritant provokes the stretching counted in writhing tests.

The text below walks through data of ChEMBL document CHEMBL1147314, “A pentacyclic triterpene with anti-inflammatory and analgesic activity from the roots of Commiphora merkeri” (1989).

Turning to `CC1(C)CC[C@]2(C)CC[C@]3(C)C(=CC[C@@H]4[C@@]5(C)C[C@@H](O)[C@H](O)[C@@](C)(CO)[C@@H]5CC[C@]43C)[C@@H]2C1`, the figures for the inhibition in vivo at 100 mg/kg in the assay on Rattus norvegicus [1] and in the assay with Rattus norvegicus [2] were 28% and 37%, respectively.

Turning to `CC(=O)Oc1ccccc1C(=O)O` [ASPIRIN], the inhibition in vivo at 100 mg/kg in the assay on Rattus norvegicus [2] amounted to 85%.

Turning to `CCCCC1C(=O)N(c2ccccc2)N(c2ccccc2)C1=O` [PHENYLBUTAZONE], in the assay with Rattus norvegicus [1], the inhibition in vivo at 100 mg/kg is 64%.

What is called inhibition in vivo is the share of the control response that was lost under treatment.
